Assay results: US20040115160A1, “Quaternary ammonium esters for disinfection and preservation” (priority 2002, published 2004)

Test system: Acanthamoeba polyphaga strain Ros cysts
Experiment: Acanthamoeba contact lens disinfectant challenge test assay
Type: cell-based
Conditions: 25 ppm
Method: Acanthamoeba polyphaga strain Ros were used in this study. Trophozoites were maintained at 30° C. in an axenic broth medium composed of 20.0 g Biosate™ (Becton Dickinson, United Kingdom), 5.0 g glucose, 0.3 g KH2PO4, 10 μg vitamin B12 and 15.0 mg L-methionine per litre of deionized water. The pH was adjusted to 6.5-6.6 with 1 M NaOH before autoclaving at 121° C. for 12 minutes. Penicillin and streptomycin were added to a final concentration of 150 μ/ml before use.
Cysts were prepared from trophozoite cultures using the axenic medium supplemented with 50 mM MgCl2. The encystment medium was inoculated with approximately 2×10^5 /ml trophoxoites for culture at 30° C. in a shaking incubator (100 rpm) for 7 days. Cells were enumerated using haemocytometer counting.
The challenge test assay protocol, as described by R. Hughes and S. Kilvington, Comparison of Hydrogen Peroxide Contact Lens Disinfection Systems and Solutions Against Acanthamoeba Polyphaga, Antimicrob. Agents Chemother. 45: 2038-2043, (2001), is set forth in detail below. The number of surviving organisms was calculated as described by L. J. Reed and H. Muench, A Simple Method for Estimating Fifty Percent Endpoints, Am. J. Hyg., 27: 493-497, (1938). Statistical analysis of the data was by One Way Analysis Of Variance (ANOVA).
1. Fifty ml polypropylene centrifuge tubes were aged overnight with 15 ml of disinfectant solution, i.e., ReNue™ 02 (Bausch & Lomb, Rochester, N.Y.). The tubes were then drained, the disinfectant solution discarded, and refilled with 10 ml of fresh disinfectant solution for testing.
2. To a flat-bottomed, 96 well microtitre plate having 8 columns labelled “A” through “H”, 180 μl of neutralizer, i.e., 0.1 percent Tween™ 80 (Baker, Inc., Phillipsburg, N.J.) in one-quarter strength Ringer's solution for biguanide based disinfectants, was added to the outer wells of columns A and H. 180 μl of one-quarter strength Ringer's solution was then added to the remaining inner wells of columns B through G.
3. Amoebae were adjusted to 5×10^6 /ml in one-quarter strength Ringer's solution and 100 μl (5×10^5) was added to 10 ml of disinfectant (5×10^4 /ml) or saline control.
4. At time intervals of 0, 1, 2, 3, 4, 6 and 24 hours:
i. vortexed tubes 5 seconds;
ii. in quadruplet, removed 20 μl (1000 cells) and added to neutralizer wells for the given time-point (i.e., column A, rows 9-12) and made serial 10-fold dilutions across the microtitre plate (i.e., to column D, rows 9-12); and
iii. repeated for each time point.
5. One drop of live E. coli from 3 ml pastette (25 μl of approximately 5×10^7 bacteria/ml) was then added to each well.
6. The plate was then incubated at 32° C. for up to 7 days.
7. The plate was inspected daily for 7 days for the presence of amoebal growth, either trophozoite replication or excystment and trophozoite replication, in the wells.
8. The number of surviving organisms was then estimated at each time interval by Reed and Muench computation and set forth below in Table 3.

CCCCCCCCCCCCCC(=O)OCCC[N+](C)(C)Cc1ccccc1 [Compound 1, N-myristoyloxypropyl-N-benzyl-N,N-dimethylammonium chloride]
Amoebae Log Kill, Cysts (1 Hr.): 3.30 Log
Amoebae Log Kill, Cysts (4 Hr.): 3.30 Log
